# Test results from patent US11155539B2, “4-pyridinylmethyl-morpholine derivatives and the use thereof as medicament” (Boehringer Ingelheim International GmbH, priority 2018, dated 2021).
# Key:
# NMDA NR1/NR2B receptor = target: T1, NMDA NR1/NR2B receptor (Homo sapiens, UniProt Q05586+Q13224); assay: In vitro NMDA NR1/NR2B cell assay (FLIPR, intracellular calcium induced by glycine/glutamate); format: cell-based; conditions: HEK293 cells expressing NMDA NR1/NR2B; 20 μM glycine, 1 μM glutamate; read-out: IC50 (in vitro NR2B affinity, FLIPR assay)
# T1 construct: host or cells: HEK293, tetracycline-inducible expression
# Method: A human HEK293 cell line with tetracyclin-inducible expression of NMDA NR1/NR2B receptor was used as a test system for compound efficacy and potency. The cell line was purchased from ChanTest, Catalog #CT6121. Compound activity was determined by measuring the effect of compounds on intracellular calcium concentration induced by glycine/glutamate agonism in a FLIPRtetra system (Molecular Devices).
# The cells were obtained as frozen cells in cryo-vials and stored until use at −150° C. Cells were grown in culture medium (DMEM/F12, 10% FBS, 5 μg/mL Blasticidin, 150 μg/mL Zeozin, 500 μg/mL Geneticin). […] For sub-culturing the cells were detached from flasks by Versene. For the assay, cells were detached, washed twice with induction medium (DMEM/F12 without glutamine, 10% FBS, 2 μg/mL Tetracycline, 2 mM Ketamine) and seeded to 384 well pure coat amine plates (Becton Dickinson, 50000 cells per well in 50 μl) 48 h prior to assay in induction medium.
# The test compounds were dissolved in 100% DMSO at a concentration of 10 mM and in a first step diluted in DMSO to a concentration of 5 mM, followed by serial dilution steps in 100% DMSO. Dilution factor and number of dilution steps may vary according to needs. Typically 8 different concentrations by 1:5 dilutions were prepared in duplicate, further intermediate dilutions (1:37.5) of the substances were carried out with aqueous assay buffer (137 mM NaCl, 4 mM KCl, 1.8 mM CaCl2, 10 mM HEPES, 10 mM Glucose, pH 7.4) resulting in a compound concentration 3 times above the final test concentration and DMSO at 2.7% resulting in 0.9% final DMSO concentration in the assay.
# At the assay day cells were washed 3× with assay buffer (as described above), 10 μL buffer remained in the wells after washing. 10 μL Ca kit loading buffer (AAT Bioquest; prepared from the kit containing the following components: Component A: Fluo-8 NW dissolved in 200 μL DMSO and 20 μl of this solution are mixed with 10 ml buffer prepared out of component B and C, Component B: 10× Pluronic® F127 Plus diluted 1:10 in component C, Component C: HHBS (Hanks with 20 mM Hepes) was added to the cells and the plates were incubated with lid for 60 minutes at room temperature. 20 μl assay buffer containing 60 μM glycine (20 μM final) and 3 μM glutamate (1 μM final) was added to column 1-23, column 24 got assay buffer without glycine/glutamate to serve as negative unstimulated control. Fluorescence (indicating the calcium influx as a result of the NR1/NR2B ion channel activation) was read on the FLIPRtetra device for 60 seconds to monitor the glutamate induced effects. After 2 minutes 20 μL of compound dilution prepared as described above or controls (row 1-22) in assay buffer were carefully added to the wells. […] The average of 2 measurements at 5 minutes and […] 10 seconds after compound addition is calculated and further used for IC50 calculations. Each assay microtiter compound dilution plate contained wells (in column 23 or 24) with DMSO controls instead of compound as controls for glycine/glutamate induced fluorescence (high controls) and wells with 1 μM of a reference NR2B NAM as low controls (Compound 22; reference: Layton, Mark E et al, ACS Chemical Neuroscience 2011, 2(7), 352-362).
# The output file of the reader contains the well number and measured average fluorescence units. For data evaluation and calculation, the measurement of the low control was set as 0% control and the measurement of the high control was set as 100% control. The IC50 values were calculated using the standard 4 parameter logistic regression formula. Calculation: [y=(a−d)/(1+(x/c)^b)+d], a=low value, d=high value; x=conc M; c=IC50 M; b=slope.
# Nav1.6 = Nav1.6 (Homo sapiens, UniProt Q9UQD0); assay: Nav 1.6 inhibition, IonWorks Quattro electrophysiology; format: cell-based; conditions: for inhibition of Nav1.6 currents (in words): reference compounds, FIG. 1 and FIG. 2; for inhibition at 1 µM / inhibition at 5 µM: normalized to vehicle control (0%) and maximal inhibition control (100%)
# Method: Determination of Nav 1.6.Inhibition
# IonWorks Quattro electrophysiological platform
# The compounds were prepared in DMSO at 300× the final assay concentrations of 1 and 5 μM.
# The 300×DMSO stock solutions were transferred into assay plates where 2 μl per well of each 300× stock solution were placed. All assay plates were stored at −80° C. until the day of assay.
# On the day of the assay, the appropriate assay plate was thawed at room temperature, centrifuged, and 198 μl of external recording solution was added and mixed thoroughly. This provided a 1:100 dilution. A further 1:3 dilution occurred upon addition to the cells in the IonWorks Quattro electrophysiological platform, giving a 1:300 dilution in total. On each assay plate, at least 8 wells were reserved for vehicle control (0.3% DMSO) and at least 8 wells for each positive control specific to the cell line tested. The positive controls were tested at a maximal blocking and an approximate IC50 concentration. As positive control Lidocaine at concentrations of 30 and 1000 μM was used.
# The solutions for recording Nav1.6 currents were as follows:
# Amphotericin B was used to obtain electrical access to the cell interior at a final concentration of 200 μg/ml in internal recording solution.
# State-dependent inhibition: Sodium channels when held at depolarized potential or long test pulse, the channels open and inactivate and then stay inactivated until the membrane potential is stepped back to hyperpolarized potentials, when the inactivated channels recover from inactivation into closed state.
# Cells were held at −120 mV. In order to completely inactivate the sodium channels (pulse 1), the cells were pulsed to +0 mV for 2500 ms and stepped back to −120 mV for 10 ms (to completely recover from inactivation, however channels that had drugs bound to them will not recover from inactivation) before stepping to +0 mV for 20 ms (pulse 2).
# Both the positive and vehicle control data associated with each cell line assayed are shown below as an example. The mean is shown for each positive and negative control as solid symbol with the total number of individual well replicates given next to the solid symbol. In addition, the individual data of each well are shown on the graph as open symbols so that the variation about the mean value can be readily assessed.
# Shown below are the assay controls for the Nav1.6 IonWorks Quattro assay.
# Tables 3 and 4 show the normalized percentage inhibition of Nav1.6 channel. […] (see also the figure Assay Control Results above).
# [1] = Metabolic stability in pooled human liver microsomes; format: in vitro ADME; conditions: pH 7.6, 1 μM compound, 37° C., NADPH, read-out: Half-life - t½ human liver microsomes
# Source text: Stability in human liver microsomes refers to the susceptibility of compounds to biotransformation in the context of selecting and/or designing drugs with favorable pharmacokinetic properties. The primary site of metabolism for many drugs is the liver. Human liver microsomes contain the cytochrome P450s (CYPs), and thus represent a model system for studying drug metabolism in vitro Enhanced stability in human liver microsomes is associated with several advantages, including increased bioavailability and adequate half-life, which can enable lower and less frequent dosing of patients. Thus, enhanced stability in human liver microsomes is a favorable characteristic for compounds that are to be used for drugs.
# The metabolic degradation of the test compound was assayed at 37° C. with pooled human liver microsomes. The final incubation volume of 60 μl per time point contains TRIS buffer pH 7.6 at room temperature (0.1 M), magnesium chloride (5 mM aqueous solution), microsomal protein (1 mg/mL for human) and the test compound at a final concentration of 1 μM. Following a short preincubation period at 37° C., the reactions were initiated by addition of betanicotinamide adenine dinucleotide phosphate, reduced form (NADPH, 1 mM), and terminated by transferring an aliquot into acetonitril after different time points. After centrifugation (10000 g, 5 min), an aliquot of the supernatant was assayed by HPLC-MS/MS as described above for the MDCK assay P-gp for the amount of parent compound. The half-life was determined by the slope of the semi-logarithmic plot of the concentration-time profile.
# MDR1 (P-gp) = target: T2, MDR1 (P-gp) (Homo sapiens, UniProt P08183); assay: MDCK assay P-gp (permeability across MDCK-MDR1 monolayers); format: in vitro ADME; conditions: for Papp A→B at 2 h: apical-to-basal, MDCK-MDR1 monolayers, pH 7.4; for efflux ratio at 2 h: pH 7.4, Papp (b-a) divided by Papp (a-b), MDCK-MDR1, read-out: efflux ratio PEBA/PEAB
# T2 construct: expressed in transfected cells; host or cells: MDCKII (Madin-Darby canine kidney)
# Method: The MDCK assays provide information on the potential of a compound to pass the blood brain barrier. Permeability measurements across polarized, confluent MDCK-MDR1 cell monolayers grown on permeable filter supports are used as an in vitro absorption model: apparent permeability coefficients (PE) of the compounds across the MDCK-MDR1 cell monolayers are measured (pH 7.4, 37° C.) in apical-to-basal (AB) and basal-to-apical (BA) transport direction. The AB permeability (PEAB) represents drug absorption from the blood into the brain and the BA permeability (PEBA) drug efflux from the brain back into the blood via both, passive permeability as well as active transport mechanisms mediated by efflux and uptake transporters that are expressed on the MDCK-MDR1 cells, predominantly by the overexpressed human MDR1. Identical or similar permeabilities in both transport directions indicate passive permeation (PEBA/PEAB≤1), vectorial permeability points to additional active transport mechanisms. Higher PEBA than PEAB (PEBA/PEAB>5) indicates the involvement of active efflux mediated by MDR1, which might compromise the goal to achieve sufficient brain exposure. Therefore, this assay provides valuable support for selection of compounds applicable for further in vivo testing. High permeability not limited by efflux at the blood brain barrier is a favorable characteristic for compounds that are to be used for drugs acting primarily in the CNS.
# Apparent permeability coefficients (Papp) of the compounds across the MDCK-MDR1 monolayers (MDCKII cells transfected with human MDR1 cDNA expression plasmid) are measured in apical-to-basal (AB) and basal-to-apical (BA) direction. MDCK-MDR1 cells (6×10^5 cells/cm^2) are seeded on filter inserts (Corning, Transwell, polycarbonate, 0.4 μm pore size) and cultured for 9 to 10 days. Compounds dissolved in DMSO stock solution (1-20 mM) are diluted with HTP-4 aqueous buffer (128.13 mM NaCl, 5.36 mM KCl, 1 mM MgSO4, 1.8 mM CaCl2, 4.17 mM NaHCO3, 1.19 mM Na2HPO4, 0.41 mM NaH2PO4, 15 mM HEPES, 20 mM glucose, pH 7.4) supplemented with 0.25% BSA to prepare the transport solutions (final concentration: 1 or 10 μM, final DMSO<=0.5%). The transport solution is applied to the apical or basolateral donor side for measuring A-B or B-A permeability, respectively. The receiver side contains HTP-4 buffer supplemented with 0.25% BSA. Samples are collected at the start and end of experiment from the donor and at various time intervals for up to 2 hours also from the receiver side for concentration measurement by HPLC-MS/MS (RapidFire High-throughput MS System (Agilent) coupled to QTrap 6500 (AB Sciex) or TSQ Vantage (Thermo Scientific)). Sampled receiver volumes are replaced with fresh receiver solution. Efflux ratio is calculated dividing the Papp (b-a) values by the Papp (a-b) values.
# T2 sequence (P08183 whole entry): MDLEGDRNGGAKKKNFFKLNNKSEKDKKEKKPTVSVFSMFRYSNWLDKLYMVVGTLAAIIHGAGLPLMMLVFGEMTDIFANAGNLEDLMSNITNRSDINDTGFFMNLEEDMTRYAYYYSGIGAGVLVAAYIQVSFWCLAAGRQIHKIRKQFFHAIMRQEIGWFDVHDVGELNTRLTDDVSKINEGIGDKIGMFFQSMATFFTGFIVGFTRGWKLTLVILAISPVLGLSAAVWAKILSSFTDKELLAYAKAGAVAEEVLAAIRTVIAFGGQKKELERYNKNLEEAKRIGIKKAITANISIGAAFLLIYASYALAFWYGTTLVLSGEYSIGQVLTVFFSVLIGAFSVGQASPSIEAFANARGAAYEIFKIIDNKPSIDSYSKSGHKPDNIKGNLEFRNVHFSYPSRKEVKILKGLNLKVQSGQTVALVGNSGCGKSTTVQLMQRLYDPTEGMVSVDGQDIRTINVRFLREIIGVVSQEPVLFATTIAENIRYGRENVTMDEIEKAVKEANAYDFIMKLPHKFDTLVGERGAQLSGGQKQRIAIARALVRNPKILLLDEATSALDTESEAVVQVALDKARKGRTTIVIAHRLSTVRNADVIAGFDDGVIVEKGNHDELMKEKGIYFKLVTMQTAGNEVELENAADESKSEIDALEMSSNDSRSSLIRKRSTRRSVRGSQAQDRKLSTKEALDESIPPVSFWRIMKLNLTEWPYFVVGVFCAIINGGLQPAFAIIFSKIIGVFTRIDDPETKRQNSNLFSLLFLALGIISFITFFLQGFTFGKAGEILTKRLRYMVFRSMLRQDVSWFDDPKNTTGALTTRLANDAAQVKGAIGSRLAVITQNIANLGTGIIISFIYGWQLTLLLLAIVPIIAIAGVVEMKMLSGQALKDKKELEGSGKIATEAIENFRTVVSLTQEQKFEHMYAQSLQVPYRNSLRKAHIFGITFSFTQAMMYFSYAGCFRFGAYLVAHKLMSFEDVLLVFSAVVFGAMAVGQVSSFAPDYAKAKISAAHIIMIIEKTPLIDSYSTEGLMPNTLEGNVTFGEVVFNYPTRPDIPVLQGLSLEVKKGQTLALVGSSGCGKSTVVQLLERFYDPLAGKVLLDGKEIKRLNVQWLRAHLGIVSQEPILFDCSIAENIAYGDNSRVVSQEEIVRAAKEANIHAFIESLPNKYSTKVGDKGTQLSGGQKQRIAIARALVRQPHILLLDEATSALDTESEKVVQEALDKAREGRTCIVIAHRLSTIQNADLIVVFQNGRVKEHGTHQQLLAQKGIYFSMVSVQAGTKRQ
# Chain of Nav1.6 (Q9UQD0 whole entry): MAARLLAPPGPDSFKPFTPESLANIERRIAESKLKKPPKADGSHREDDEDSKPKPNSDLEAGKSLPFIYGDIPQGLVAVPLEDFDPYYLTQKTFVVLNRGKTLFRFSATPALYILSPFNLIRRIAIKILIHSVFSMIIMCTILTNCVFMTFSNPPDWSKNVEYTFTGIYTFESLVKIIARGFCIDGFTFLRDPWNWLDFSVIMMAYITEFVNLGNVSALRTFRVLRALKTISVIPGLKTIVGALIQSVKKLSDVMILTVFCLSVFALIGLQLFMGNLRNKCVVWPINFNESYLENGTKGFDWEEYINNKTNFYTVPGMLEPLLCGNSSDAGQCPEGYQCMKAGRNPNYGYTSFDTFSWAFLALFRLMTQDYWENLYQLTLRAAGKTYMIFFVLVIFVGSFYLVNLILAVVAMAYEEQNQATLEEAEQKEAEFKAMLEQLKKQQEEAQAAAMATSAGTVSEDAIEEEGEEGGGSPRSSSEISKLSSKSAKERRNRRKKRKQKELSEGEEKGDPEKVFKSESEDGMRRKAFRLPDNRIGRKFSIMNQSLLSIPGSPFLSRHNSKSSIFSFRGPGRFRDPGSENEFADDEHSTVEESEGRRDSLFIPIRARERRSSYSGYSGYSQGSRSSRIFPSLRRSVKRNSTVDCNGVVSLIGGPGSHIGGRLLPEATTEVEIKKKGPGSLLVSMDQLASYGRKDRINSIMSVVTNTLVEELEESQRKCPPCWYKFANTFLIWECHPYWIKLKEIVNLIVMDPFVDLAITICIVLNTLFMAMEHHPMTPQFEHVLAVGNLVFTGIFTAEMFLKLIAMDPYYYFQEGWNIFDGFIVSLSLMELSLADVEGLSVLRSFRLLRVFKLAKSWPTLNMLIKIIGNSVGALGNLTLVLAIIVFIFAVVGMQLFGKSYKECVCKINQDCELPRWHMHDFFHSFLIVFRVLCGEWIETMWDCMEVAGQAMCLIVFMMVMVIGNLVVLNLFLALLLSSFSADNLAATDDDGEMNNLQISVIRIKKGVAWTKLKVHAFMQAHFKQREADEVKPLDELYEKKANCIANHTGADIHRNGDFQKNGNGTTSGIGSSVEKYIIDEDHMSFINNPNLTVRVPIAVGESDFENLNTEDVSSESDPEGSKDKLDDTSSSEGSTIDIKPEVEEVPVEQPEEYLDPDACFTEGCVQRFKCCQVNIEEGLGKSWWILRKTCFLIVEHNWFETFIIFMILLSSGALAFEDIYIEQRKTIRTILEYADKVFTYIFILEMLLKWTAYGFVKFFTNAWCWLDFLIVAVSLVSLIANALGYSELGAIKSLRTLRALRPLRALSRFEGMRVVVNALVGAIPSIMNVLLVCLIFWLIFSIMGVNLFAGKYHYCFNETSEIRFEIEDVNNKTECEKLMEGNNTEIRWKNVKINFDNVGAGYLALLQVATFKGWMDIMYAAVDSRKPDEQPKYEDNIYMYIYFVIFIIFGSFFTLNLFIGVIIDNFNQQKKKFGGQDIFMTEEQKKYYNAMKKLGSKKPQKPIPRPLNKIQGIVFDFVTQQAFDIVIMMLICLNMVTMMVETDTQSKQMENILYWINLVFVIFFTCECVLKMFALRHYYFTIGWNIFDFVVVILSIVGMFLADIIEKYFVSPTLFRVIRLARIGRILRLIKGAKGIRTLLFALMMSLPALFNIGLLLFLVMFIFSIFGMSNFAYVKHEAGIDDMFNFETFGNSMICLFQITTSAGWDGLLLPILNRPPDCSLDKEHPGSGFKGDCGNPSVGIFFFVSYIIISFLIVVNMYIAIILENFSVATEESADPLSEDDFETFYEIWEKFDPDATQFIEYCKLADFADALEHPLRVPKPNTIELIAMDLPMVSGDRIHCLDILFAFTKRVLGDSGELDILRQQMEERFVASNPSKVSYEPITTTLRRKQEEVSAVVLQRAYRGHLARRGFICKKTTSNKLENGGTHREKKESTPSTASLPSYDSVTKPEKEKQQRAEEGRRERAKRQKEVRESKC
# T1 sequence (Q13224 27-1484, other chains not shown): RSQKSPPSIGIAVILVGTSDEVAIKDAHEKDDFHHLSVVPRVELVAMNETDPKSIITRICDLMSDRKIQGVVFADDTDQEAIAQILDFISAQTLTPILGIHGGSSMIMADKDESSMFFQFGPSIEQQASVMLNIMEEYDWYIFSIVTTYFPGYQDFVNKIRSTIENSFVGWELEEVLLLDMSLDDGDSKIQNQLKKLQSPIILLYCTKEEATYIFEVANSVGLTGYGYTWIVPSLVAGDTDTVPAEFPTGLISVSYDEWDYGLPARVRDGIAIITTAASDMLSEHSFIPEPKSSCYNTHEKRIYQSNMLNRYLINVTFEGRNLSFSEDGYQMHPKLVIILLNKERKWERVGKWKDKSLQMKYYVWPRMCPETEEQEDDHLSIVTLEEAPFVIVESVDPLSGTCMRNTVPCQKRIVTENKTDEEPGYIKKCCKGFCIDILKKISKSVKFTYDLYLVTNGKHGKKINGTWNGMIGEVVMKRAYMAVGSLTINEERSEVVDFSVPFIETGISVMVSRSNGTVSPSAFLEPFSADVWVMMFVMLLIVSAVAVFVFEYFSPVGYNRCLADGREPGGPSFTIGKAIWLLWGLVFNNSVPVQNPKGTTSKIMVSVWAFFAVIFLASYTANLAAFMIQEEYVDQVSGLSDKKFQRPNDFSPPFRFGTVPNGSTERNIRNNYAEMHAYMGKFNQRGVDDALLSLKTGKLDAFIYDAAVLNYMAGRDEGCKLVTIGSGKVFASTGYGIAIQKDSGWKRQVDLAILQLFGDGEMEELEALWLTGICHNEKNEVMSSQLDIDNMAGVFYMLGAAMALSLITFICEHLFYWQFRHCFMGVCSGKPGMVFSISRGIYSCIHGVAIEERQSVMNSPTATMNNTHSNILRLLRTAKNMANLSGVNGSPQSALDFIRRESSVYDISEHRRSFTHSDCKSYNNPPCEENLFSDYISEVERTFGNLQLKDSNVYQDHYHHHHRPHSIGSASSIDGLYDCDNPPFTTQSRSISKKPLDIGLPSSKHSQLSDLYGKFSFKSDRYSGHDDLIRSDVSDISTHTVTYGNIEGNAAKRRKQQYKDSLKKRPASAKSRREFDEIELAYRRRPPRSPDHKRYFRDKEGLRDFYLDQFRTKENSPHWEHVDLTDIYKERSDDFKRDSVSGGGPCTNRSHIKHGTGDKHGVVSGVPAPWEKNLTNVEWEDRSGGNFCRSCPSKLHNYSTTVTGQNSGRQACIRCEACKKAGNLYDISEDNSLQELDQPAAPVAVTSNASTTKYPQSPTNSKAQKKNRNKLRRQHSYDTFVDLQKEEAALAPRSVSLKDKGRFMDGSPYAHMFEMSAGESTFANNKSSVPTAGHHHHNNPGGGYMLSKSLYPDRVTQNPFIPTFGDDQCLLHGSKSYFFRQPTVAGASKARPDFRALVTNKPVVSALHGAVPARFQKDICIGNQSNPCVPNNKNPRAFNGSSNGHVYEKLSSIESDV
compound,measurement,setting,value
CNC(=O)[C@@H]1CN(Cc2ccc(Oc3cc(F)ccc3Cl)nc2)CCO1 [Example 41],IC50,NMDA NR1/NR2B receptor,0.286 µM
CNC(=O)[C@@H]1CN(Cc2ccc(Oc3cc(F)ccc3F)nc2)CCO1 [Example 40],IC50,NMDA NR1/NR2B receptor,0.452 µM
CNC(=O)[C@@H]1CN(Cc2ccc(Oc3ccc(F)cc3)nc2)CCO1 [Example 14],IC50,NMDA NR1/NR2B receptor,0.198 µM
"CCCCNc1ccc(C(=O)OCCN(C)C)cc1 [Tetracaine, reference compound]",inhibition of Nav1.6 currents (in words),Nav1.6,much stronger at depolarized potentials than at hyperpolarized potential
CNC(=O)C1CN(Cc2ccc(Oc3ccc(C)cc3C)nc2)CCO1 (stereo not shown) [Example 13],inhibition at 1 µM,Nav1.6,-3.1%
same,inhibition at 5 µM,Nav1.6,-1.8%
same,half-life at 1 μM,[1],> 2.17 h
same,Papp A→B at 2 h,MDR1 (P-gp),45 ×10⁻⁶ cm/s
same,efflux ratio at 2 h,MDR1 (P-gp),1
CNC(=O)[C@@H]1CN(Cc2ccc(Oc3ccc(Cl)cc3)nc2)CCO1 [Example 16],IC50,NMDA NR1/NR2B receptor,0.205 µM
CNC(=O)[C@@H]1CN(Cc2ccc(Oc3c(F)cccc3F)nc2)CCO1 [Example 37],IC50,NMDA NR1/NR2B receptor,0.203 µM
CNC(=O)[C@@H]1CN(Cc2ccc(Oc3ccccc3)nc2)CCO1 [Example 36],IC50,NMDA NR1/NR2B receptor,0.353 µM
CNC(=O)C1CN(Cc2ccc(Oc3ccc(F)cc3)nc2)CCO1 (stereo not shown) [Example 14],inhibition at 1 µM,Nav1.6,0.7%
same,inhibition at 5 µM,Nav1.6,0.4%
same,half-life at 1 μM,[1],> 2.17 h
same,Papp A→B at 2 h,MDR1 (P-gp),92 ×10⁻⁶ cm/s
same,efflux ratio at 2 h,MDR1 (P-gp),0.4
CNC(=O)[C@@H]1CN(Cc2ccc(Oc3c(C)cccc3F)nc2)CCO1 [Example 38],IC50,NMDA NR1/NR2B receptor,0.419 µM
CNC(=O)[C@@H]1CN(Cc2ccc(Oc3ccc(C)cc3C)nc2)CCO1 [Example 13],IC50,NMDA NR1/NR2B receptor,0.442 µM
CNC(=O)[C@@H]1CN(Cc2ccc(Oc3ccccc3)cn2)CCO1 [Example 35],IC50,NMDA NR1/NR2B receptor,0.457 µM
CNC(=O)[C@@H]1CN(Cc2ccc(Oc3ccc(Cl)cc3F)nc2)CCO1 [Example 15],IC50,NMDA NR1/NR2B receptor,0.069 µM
CNC(=O)C1CN(Cc2ccc(Oc3ccc(Cl)cc3)nc2)CCO1 (stereo not shown) [Example 16],inhibition at 1 µM,Nav1.6,-0.5%
same,inhibition at 5 µM,Nav1.6,7.1%
same,half-life at 1 μM,[1],> 2.17 h
same,Papp A→B at 2 h,MDR1 (P-gp),51 ×10⁻⁶ cm/s
same,efflux ratio at 2 h,MDR1 (P-gp),0.7
CNC(=O)[C@@H]1CN(Cc2ccc(Oc3ccc(C)cc3F)nc2)CCO1 [Example 12],IC50,NMDA NR1/NR2B receptor,0.117 µM
CNC(=O)[C@@H]1CN(Cc2ccc(Oc3ccc(F)cc3F)nc2)CCO1 [Example 11],IC50,NMDA NR1/NR2B receptor,0.103 µM
"CCN(CC)CC(=O)Nc1c(C)cccc1C [Lidocaine, reference compound]",inhibition at 1000 µM,Nav1.6; read-out: maximum inhibition at P1 (not normalized),46.4 to 47.2%
same,inhibition of Nav1.6 currents (in words),Nav1.6,inhibited evoked currents in a concentration and use dependent manner
CNC(=O)[C@@H]1CN(Cc2ccc(Oc3c(F)cccc3F)cn2)CCO1 [Example 39],IC50,NMDA NR1/NR2B receptor,0.282 µM
